Experiments:
[1] = target: opiate receptor sites in the CNS; experiment: Competitive binding to opiate receptor sites in the CNS, mouse brain; conditions: Brain of the mouse (Table 5, mean; spread in a separate column)
[2] = test system: analgesic effects of the ED99 of morphine; experiment: Antagonism of the analgesic effect of the ED99 of morphine, mechanical irritation of the tail; conditions: rat, under skin injection, morphine 5 mg/kg (ED99)
[3] = target: opiate receptor sites in the CNS; experiment: Competitive binding to opiate receptor sites in the CNS, rat brain, 3H-Naloxone
[4] = test system: respiratory depression caused by LD50 of Promedol (Trimeperidine); experiment: Antagonism of respiratory depression caused by LD50 of Promedol; conditions: rat, Promedol (Trimeperidine) 70 mg/kg (LD50)

CCC(=O)NC1CC(C)N(CCc2ccccc2)CC1C (stereo not shown) [N-[2,5-dimethyl-1-(2-phenylethyl)piperidin-4-yl]propanamide]
IC50 [1]: 0.1 nM
Median Antagonistic activity AD50 (parenthetical is range) [2]: 1.2 (0.8-1.64) mg/kg
IC50 ([3]; Brain of the rate (Table 5, mean; spread in a separate column), read-out: IC50): 0.12 nM
IC50 ([3]; brain of the rat, 3H-Naloxone (Table 4), read-out: Affinity IC50): 0.12 nM
Median Antagonistic activity AD50 (parenthetical is range) [4]: 5.1 (3.4-7.8) mg/kg

C=CCN1CC[C@]23c4c5ccc(O)c4O[C@H]2C(=O)CC[C@@]3(O)[C@H]1C5 [naloxone, 17-allyl-4,5a-epoxy-3,14-dihydroxymorphinan-6-one, reference compound]
Median Antagonistic activity AD50 (parenthetical is range) [2]: 0.3 (0.22-0.39) mg/kg
Median Antagonistic activity AD50 (parenthetical is range) [4]: 1.8 (1.1-3.2) mg/kg

— patent US9650338B1 (priority 2016, dated 2017)
